Experimental data published in patent publication US10875876B2, “Cyclized sulfamoylarylamide derivatives and the use thereof as medicaments for the treatment of hepatitis B” (priority 2015, dated 2020).
Read-outs that look alike come from different tables or passages of the source.

Key:
HBV = assay: anti HBV activity, HepG2.117 cell line, intracellular HBV DNA by realtime PCR; format: cell-based; conditions: HepG2.117 cell line (Tet-off), 3 days of treatment, intracellular HBV DNA quantified by realtime PCR, read-out: HBV-AVE-HepG2.117 EC50
Protocol: The anti HBV activity was measured using the HepG2.117 cell line, a stable, inducibly HBV producing cell line, which replicates HBV in the absence of doxicycline (Tet-off system). For the antiviral assay, HBV replication was induced, followed by a treatment with serially diluted compound in 96-well plates in duplicate. After 3 days of treatment, the antiviral activity was determined by quantification of intracellular HBV DNA using realtime PCR and an HBV specific primer set and probe.

[1] = Cytotoxicity in HepG2 cells, Resazurin assay; conditions: human, HepG2 cells, TOX-HepG2-4 d CC50 (μM), HepG2 cells incubated for 4 days, viability by Resazurin assay
[2] = Hepatitis B virus, HepG2.117, 72 h

Structure (SMILES): C[C@H](O)[C@H]1C=Cc2c(cn(C)c2C(=O)Nc2ccc(F)c(C(F)F)c2F)S(=O)(=O)N1 [Compound 186, (3R)—N-[3-(difluoromethyl)-2,4-difluoro-phenyl]-3-[(1S)-1-hydroxyethyl]-7-methyl-1,1-dioxo-2,3-dihydropyrrolo[3,4-f]thiazepine-6-carboxamide]
- EC50 (HBV; [2]): 0.011 µM
- CC50 at 4 days [1]: > 25 µM

Structure (SMILES): Cn1cc2c(c1C(=O)Nc1ccc(F)c(Cl)c1)OCC1(CCOC1)NS2(=O)=O (racemic) [Compound 212, N-(3-chloro-4-fluoro-phenyl)-7-methyl-1,1-dioxo-spiro[2,4-dihydropyrrolo[3,4-b][1,4,5]oxathiazepine-3,3′-tetrahydrofuran]-6-carboxamide]
- EC50 (HBV; [2]): 0.007 µM
- CC50 at 4 days [1]: > 25 µM

Structure (SMILES): CCC1Cc2c(cn(C)c2C(=O)Nc2ccc(F)c(F)c2)S(=O)(=O)N1 (stereo not drawn) [Compound 17, N-(3,4-difluorophenyl)-3-ethyl-6-methyl-1,1-dioxo-3,4-dihydro-2H-pyrrolo[3,4-e]thiazine-5-carboxamide]
- EC50 (HBV; [2]): < 0.098 µM
- CC50 at 4 days [1]: > 25 µM

Structure (SMILES): Cn1cc2c(c1C(=O)Nc1ccc(F)c(C#N)c1)OC[C@H](C(O)C1CC1)NS2(=O)=O (stereo partly drawn) [Compound 120a, (3R)—N-(3-cyano-4-fluoro-phenyl)-3-[cyclopropyl(hydroxy)methyl]-7-methyl-1,1-dioxo-3,4-dihydro-2H-pyrrolo[3,4-b][1,4,5]oxathiazepine-6-carboxamide]
- EC50 (HBV; [2]): 0.007 µM
- CC50 at 4 days [1]: > 25 µM

Structure (SMILES): COC(C)(C)C1COc2c(cn(C)c2C(=O)Nc2ccc(F)c(F)c2)S(=O)(=O)N1 (stereo not drawn) [Compound 80, N-(3,4-difluorophenyl)-3-(1-methoxy-1-methyl-ethyl)-7-methyl-1,1-dioxo-3,4-dihydro-2H-pyrrolo[3,4-b][1,4,5]oxathiazepine-6-carboxamide]
- EC50 (HBV; [2]): 0.018 µM
- CC50 at 4 days [1]: > 25 µM

Structure (SMILES): Cc1ccc(NC(=O)c2c(F)ccc3c2OC[C@H](C(C)C)NS3(=O)=O)cc1F [compound 232]
- EC50 (HBV; [2]): > 0.5 µM
- CC50 at 4 days [1]: > 25 µM

Structure (SMILES): Cc1cc(NC(=O)c2c3c(cn2C)S(=O)(=O)N[C@@H](Cc2cccnc2)CO3)ccc1F [Compound 74, (3S)—N-(4-fluoro-3-methyl-phenyl)-7-methyl-1,1-dioxo-3-(3-pyridylmethyl)-3,4-dihydro-2H-pyrrolo[3,4-b][1,4,5]oxathiazepine-6-carboxamide]
- EC50 (HBV; [2]): 0.052 µM
- CC50 at 4 days [1]: > 25 µM

Structure (SMILES): CCC1(C)COc2c(cn(C)c2C(=O)Nc2ccc(F)c(F)c2)S(=O)(=O)N1 (single isomer, unassigned) [Compound 134a, N-(3,4-difluorophenyl)-3-ethyl-3,7-dimethyl-1,1-dioxo-2,4-dihydropyrrolo[3,4-b][1,4,5]oxathiazepine-6-carboxamide]
- EC50 (HBV; [2]): 0.008 µM
- CC50 at 4 days [1]: > 25 µM

Structure (SMILES): Cn1cc2c(c1C(=O)Nc1ccc(F)c(F)c1)OC[C@H](C(O)C1CC1)NS2(=O)=O (stereo partly drawn) [Compound 105a, (3R)-3-[cyclopropyl(hydroxy)methyl]-N-(3,4-difluorophenyl)-7-methyl-1,1-dioxo-3,4-dihydro-2H-pyrrolo[3,4-b][1,4,5]oxathiazepine-6-carboxamide]
- EC50 (HBV; [2]): 0.007 µM
- CC50 at 4 days [1]: > 25 µM

Structure (SMILES): Cc1cccc(C2(C)COc3c(cn(C)c3C(=O)Nc3ccc(F)c(F)c3)S(=O)(=O)N2)n1 (racemic) [Compound 168, N-(3,4-difluorophenyl)-3,7-dimethyl-3-(6-methyl-2-pyridyl)-1,1-dioxo-2,4-dihydropyrrolo[3,4-b][1,4,5]oxathiazepine-6-carboxamide]
- EC50 (HBV; [2]): 0.025 µM
- CC50 at 4 days [1]: > 25 µM

Structure (SMILES): C[C@@H]1NS(=O)(=O)c2cn(C)c(C(=O)Nc3ccc(F)c(F)c3)c2O[C@H]1C [compound 229]
- EC50 (HBV; [2]): > 0.5 µM
- CC50 at 4 days [1]: > 25 µM

Structure (SMILES): Cn1cc2c(c1C(=O)Nc1ccc(F)c(F)c1)OCC(C)(c1ncco1)NS2(=O)=O (racemic) [Compound 160, N-(3,4-difluorophenyl)-3,7-dimethyl-3-oxazol-2-yl-1,1-dioxo-2,4-dihydropyrrolo[3,4-b][1,4,5]oxathiazepine-6-carboxamide]
- EC50 (HBV; [2]): 0.0145 µM
- CC50 at 4 days [1]: > 25 µM

Structure (SMILES): Cn1ccc(CC2(C)COc3c(cn(C)c3C(=O)Nc3ccnc(C(F)F)c3)S(=O)(=O)N2)n1 (single isomer, unassigned) [Compound 217a, N-[2-(difluoromethyl)-4-pyridyl]-3,7-dimethyl-3-[(1-methylpyrazol-3-yl)methyl]-1,1-dioxo-2,4-dihydropyrrolo[3,4-b][1,4,5]oxathiazepine-6-carboxamide]
- EC50 (HBV): 0.025 µM
- CC50 at 4 days [1]: > 25 µM

Structure (SMILES): Cn1cc2c(c1C(=O)Nc1ccc(F)c(F)c1)OC[C@@](C)(Cc1ccccc1)NS2(=O)=O [Compound 154, (3R)-3-benzyl-N-(3,4-difluorophenyl)-3,7-dimethyl-1,1-dioxo-2,4-dihydropyrrolo[3,4-b][1,4,5]oxathiazepine-6-carboxamide]
- EC50 (HBV; [2]): 0.008 µM
- CC50 at 4 days [1]: > 25 µM

Structure (SMILES): CC1CCC/C=C\Cc2c(cn(C)c2C(=O)Nc2ccc(F)c(F)c2)S(=O)(=O)N1 (stereo not drawn) [Compound 2a, 8Z—N-(3,4-difluorophenyl)-4,13-dimethyl-2,2-dioxo-2λ^6-thia-3,13-diazabicyclo[9.3.0]tetradeca-1(14),8,11-triene-12-carboxamide]
- EC50 (HBV; [2]): 0.28 µM
- CC50 at 4 days [1]: > 25 µM

Structure (SMILES): C[C@H]1C=Cc2c(cn(C)c2C(=O)Nc2ccc(F)c(C(F)F)c2)S(=O)(=O)N1 (single isomer, unassigned) [Compound 51, (3*S)—N-[3-(difluoromethyl)-4-fluoro-phenyl]-3,7-dimethyl-1,1-dioxo-2,3-dihydropyrrolo[3,4-f]thiazepine-6-carboxamide]
- EC50 (HBV; [2]): < 0.002 µM
- CC50 at 4 days [1]: > 25 µM

Structure (SMILES): CC1C=Cc2c(cn(C)c2C(=O)Nc2ccc(F)c(F)c2)S(=O)(=O)N1 (single isomer, unassigned) [Compound 7a, N-(3,4-difluorophenyl)-3,7-dimethyl-1,1-dioxo-2,3-dihydropyrrolo-[3,4-f]thiazepine-6-carboxamide]
- EC50 (HBV): 0.13 µM
- CC50 at 4 days [1]: > 25 µM

Structure (SMILES): Cn1cc2c(c1C(=O)Nc1ccc(F)c(F)c1)OC[C@@H]([C@@H](O)c1ccccc1)NS2(=O)=O [Compound 63, (3S)—N-(3,4-difluorophenyl)-3-[(S)-hydroxy(phenyl)methyl]-7-methyl-1,1-dioxo-3,4-dihydro-2H-pyrrolo[3,4-b][1,4,5]oxathiazepine-6-carboxamide]
- EC50 (HBV; [2]): 0.24 µM
- CC50 at 4 days [1]: > 25 µM

Structure (SMILES): Cn1cc2c(c1C(=O)Nc1ccc(F)c(C#N)c1)OCCNS2(=O)=O [Compound 91, N-(3-cyano-4-fluoro-phenyl)-7-methyl-1,1-dioxo-3,4-dihydro-2H-pyrrolo[3,4-b][1,4,5]oxathiazepine-6-carboxamide]
- EC50 (HBV; [2]): 0.13 µM
- CC50 at 4 days [1]: > 25 µM

Structure (SMILES): C[C@H]1CCc2c(cn(C)c2C(=O)Nc2ccc(F)c(C(F)F)c2)S(=O)(=O)N1 (single isomer, unassigned) [Compound 55, (3*S)—N-[3-(difluoromethyl)-4-fluoro-phenyl]-3,7-dimethyl-1,1-dioxo-2,3,4,5-tetrahydropyrrolo[3,4-f]thiazepine-6-carboxamide]
- EC50 (HBV; [2]): 0.003 µM
- CC50 at 4 days [1]: > 25 µM

Structure (SMILES): COCC1(CO)CCc2c(cn(C)c2C(=O)Nc2ccc(F)c(F)c2)S(=O)(=O)N1 (stereo not drawn) [Compound 202, N-(3,4-difluorophenyl)-3-(hydroxymethyl)-3-(methoxymethyl)-7-methyl-1,1-dioxo-4,5-dihydro-2H-pyrrolo[3,4-f]thiazepine-6-carboxamide]
- EC50 (HBV; [2]): 0.025 µM
- CC50 at 4 days [1]: > 25 µM

Structure (SMILES): C[C@H]1C=Cc2c(cn(C)c2C(=O)Nc2ccc(F)c(Cl)c2F)S(=O)(=O)N1 (single isomer, unassigned) [Compound 52, (3*S)—N-(3-chloro-2,4-difluoro-phenyl)-3,7-dimethyl-1,1-dioxo-2,3-dihydropyrrolo[3,4-f]thiazepine-6-carboxamide]
- EC50 (HBV; [2]): 0.056 µM
- CC50 at 4 days [1]: > 25 µM

Structure (SMILES): CC(C)[C@H]1COc2c(ccc(F)c2C(=O)Nc2ccc(F)c(C#N)c2)S(=O)(=O)N1 [Compound 45, (3S)—N-(3-cyano-4-fluoro-phenyl)-7-fluoro-3-isopropyl-1,1-dioxo-3,4-dihydro-2H-5,1λ^6,2-benzoxathiazepine-6-carboxamide]
- EC50 (HBV; [2]): 0.23 µM
- CC50 at 4 days [1]: > 25 µM

Structure (SMILES): C[C@H]1CCc2c(cn(C)c2C(=O)Nc2ccnc(Br)c2)S(=O)(=O)N1 (single isomer, unassigned) [Compound 57, (3*S)—N-(2-bromo-4-pyridyl)-3,7-dimethyl-1,1-dioxo-2,3,4,5-tetrahydropyrrolo[3,4-f]thiazepine-6-carboxamide]
- EC50 (HBV; [2]): 0.013 µM
- CC50 at 4 days [1]: > 25 µM

Structure (SMILES): Cn1cc2c(c1C(=O)Nc1ccc(F)c(F)c1)C=CC(C)(Cc1ccc(Cl)nc1)NS2(=O)=O (stereo not drawn) [Compound 219, 3-[(6-chloro-3-pyridyl)methyl]-N-(3,4-difluorophenyl)-3,7-dimethyl-1,1-dioxo-2H-pyrrolo[3,4-f]thiazepine-6-carboxamide]
- CC50 at 4 days [1]: > 25 µM

Structure (SMILES): Cc1cc(CC2(C)COc3c(cn(C)c3C(=O)Nc3cc(F)c(F)c(F)c3)S(=O)(=O)N2)no1 (single isomer, unassigned) [Compound 170a, 3,7-dimethyl-3-[(5-methylisoxazol-3-yl)methyl]-1,1-dioxo-N-(3,4,5-trifluorophenyl)-2,4-dihydropyrrolo[3,4-b][1,4,5]oxathiazepine-6-carboxamide]
- CC50 at 4 days [1]: > 25 µM

Structure (SMILES): Cc1cccc(C2(C)COc3c(cn(C)c3C(=O)Nc3ccc(F)c(C(F)F)c3)S(=O)(=O)N2)n1 (single isomer, unassigned) [Compound 177a, N-[3-(difluoromethyl)-4-fluoro-phenyl]-3,7-dimethyl-3-(6-methyl-2-pyridyl)-1,1-dioxo-2,4-dihydropyrrolo[3,4-b][1,4,5]oxathiazepine-6-carboxamide]
- CC50 at 4 days [1]: > 25 µM
